Measurements from article PMC9706920, “Aryloxypropanolamine targets amyloid aggregates and reverses Alzheimer-like phenotypes in Alzheimer mouse models” (Alzheimer's Research & Therapy, 2022).

Tests used:
Aβ(1–42) aggregates = target: T1, Aβ(1–42) aggregates (Homo sapiens, UniProt P05067); assay: SDS-PAGE with PICUP and silver staining; format: biochemical; details: 500 μM compound, aggregated Aβ(1–42)
T1 construct: made in house; host or cells: chemical synthesis (Fmoc solid phase peptide synthesis)
T1 sequence (P05067 672-713 limits assumed): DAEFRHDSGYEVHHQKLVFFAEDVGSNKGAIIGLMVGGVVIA
Method: SDS-PAGE with photo-induced cross-linking of unmodified proteins (PICUP) and silver staining was used to evaluate the disaggregating effects of YIAD001 and YIAD002 by visualizing the size distributions and band intensity of Aβ(1–42). Samples were prepared under the same conditions as the Aβ(1–42) disaggregation ThT fluorescence assay. Amyloid proteins in the samples from the aforementioned disaggregation assay were subjected to cross-linking, initiated by irradiation (three exposures, each for 1 second) in the presence of tris(2,2′-bipyridyl)dichlororuthenium(II) hexahydrate (Ru(Bpy)) (1 mM) and 1 μL of ammonium persulfate (20 mM). Reactions were immediately quenched with β-mercaptoethanol and boiled for 5 min at 95°C. After cross-linking the samples, we separated amyloid species by SDS-PAGE on a 15% tris-tricine gel and performed silver staining according to the PlusOne Silver Staining kit protocol (GE Healthcare, USA).

Aβ(1–40) aggregates = target: T2, Aβ(1–40) aggregates (Homo sapiens, UniProt P05067); assay: ThT fluorescence Aβ(1–40) disaggregation assay; format: biochemical; details: 500 μM compound, Aβ(1–40) 25 μM pre-aggregated 3 days, co-incubated additional 3 days
T2 construct: Aβ(1–40), […]; […]; made in house; host or cells: chemical synthesis (Fmoc solid phase peptide synthesis)
T2 sequence (P05067 672-711): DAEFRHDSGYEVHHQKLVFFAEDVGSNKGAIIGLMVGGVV
Method: ThT fluorescence was used to assess the in vitro inhibition of Aβ(1–42) and disaggregation of Aβ(1–42), Aβ(1–40), Aβ(pE3-42), recombinant tau K18, and tau repeats R1, R2, R3, R4 by YIAD compounds. In house synthetic Aβ(1–42) was dissolved in DMSO (1 mM, 100% DMSO) and diluted to 20-fold in deionized water to make 50 μM Aβ(1–42) stocks (5% DMSO). YIAD compounds were first dissolved in DMSO (100 mM, 100% DMSO) and serially diluted with deionized water to make YIAD stocks with concentrations of 1, 10, 100, and 1000 μM (10% DMSO). For the Aβ(1–42) inhibition assay, monomeric Aβ(1–42) stocks and YIAD stocks were co-incubated at 37°C for 3 days. For Aβ(1–42) disaggregation assay, monomeric Aβ(1–42) stocks were preincubated at 37°C for three days to form Aβ(1–42) aggregates, and subsequently, YIAD stocks were added for an additional 3 days. For Aβ(1-40) disaggregation assays, Aβ(1–40) (50 μM, 5% DMSO) was preincubated at 37°C for 3 days to induce aggregation, and co-incubated with YIAD001 and YIAD002 for an additional 3 days. […] Prior to fluorescence intensity measurement, ThT solution (5 μM) was prepared by dissolving ThT, purchased from Sigma-Aldrich (MO, USA) in 50 mM glycine buffer (pH 8.5). To quantify the effect of inhibition and disaggregation, 25 μL of all samples and 75 μL of ThT solution were loaded into a half-area 96-well black plate in triplicate.

5XFAD mice = assay: Western blot of brain lysates of 5XFAD mice; format: in vivo, mouse; details: 50 mg/kg/day, 5 weeks
Method: To test the in vivo efficacy of YIAD001 and YIAD002, female 5XFAD mice (n = 25) and female wildtype mice (n = 7) were assessed at the age of 4.5 months. YIAD compounds were dissolved in DMSO and diluted in drinking water to a final concentration of 50 mg/kg/day (5% DMSO, 5% Tween) for oral administration. The three compounds, YIAD001, YIAD002, and YIAD003, were freely administered via drinking water to 4.5-month-old 5XFAD mice (n = 6 for each group) for 5 weeks. As a control, 5% DMSO, 5% Tween in drinking water was provided ad libitum to littermate 5XFAD mice (n = 7) and wildtype mice (n = 7) for 5 weeks.
After the administration period, the mice were deeply anaesthetized with 4% avertin through intraperitoneal injection and transcardially perfused with 0.9% saline. Subsequently, the mice were sacrificed for brain excision. Each collected brain was divided through the mid-sagittal section; the hippocampal and cortical regions were dissected from one half and stored at −80°C for subsequent brain lysates, while the other half was immersed in 4% paraformaldehyde (pH 7.4) for 24 h and 30% sucrose for 48 h at 4°C and subsequently deep-froze at −80°C for immunohistochemistry.
Isolated cortical and hippocampal tissue samples were homogenized in ice-cold RIPA buffer with protease inhibitor cocktail and phosphatase inhibitor cocktail. Lysed tissues were incubated in ice for 30 min and subsequently centrifuged at 14,000 rpm at 4°C for 30 min. The supernatants of the brain lysates were collected and soluble protein concentrations were quantified with the Pierce BCA protein assay kit (Thermo Fisher Scientific, USA).
Western blot analysis was performed to assess YIAD002-induced alterations of protein biomarkers in 5XFAD mice brain lysates. Twenty micrograms of lysate samples were loaded onto 12% tris-tricine gels, separated by SDS-PAGE, and transferred to nitrocellulose membranes. Membranes were blocked by 5% skim milk or 5% BSA in TBS-T. The following primary antibodies were used for immunoblotting: anti-6E10 for APP (1:1000, Biolegend 803003), anti-AT8 (1:1000, Invitrogen MN1020), anti-Tau (1:1000, Santa Cruz SC390476), anti-ionized calcium-binding adapter molecule (Iba1) (1:1000, CST, 17198S), anti-glial fibrillar acidic protein (GFAP) (1:2000, Milipore AB5541), anti-postsynaptic density protein 95 (PSD95) (1:1000, CST 3450S), anti-synaptophysin (1:1000, Milipore MAB5258), and anti-β-Actin (1:10,000, Milipore MAB1501). Membranes were incubated with primary antibodies at 4°C overnight and probed with HRP-conjugated IgG antibodies (1:10,000) in RT for an hour. Proteins were detected using an ECL kit (Thermo Fisher Scientific, USA). Membranes were washed with TBS-T in between steps, three times for 10 min.

| SMILES | Size distribution of Aβ(1–42) bands (fibrils, monomers) (Aβ(1–42) aggregates) | Decrease of Aβ(1–40) aggregates (ThT fluorescence) (Aβ(1–40) aggregates) [%] | Cortical and hippocampal APP levels (5XFAD mice) | Cortical total tau levels (5XFAD mice; vs vehicle) | Increase of cortical PSD95 levels (5XFAD mice; vs vehicle) [%] | Increase of cortical synaptophysin levels (5XFAD mice; vs vehicle) [%] | Reduction of cortical Iba1 levels (5XFAD mice; vs vehicle) [%] | Reduction of cortical phosphorylated tau (AT8) (5XFAD mice; vs vehicle) | melting point [°C] | Reduction of GFAP expression (5XFAD mice; cortical lysates, vs vehicle) [%] |
| --- | --- | --- | --- | --- | --- | --- | --- | --- | --- | --- |
| CCC(C)(C)c1ccc(OCC(O)CN2CCOCC2)c(C(C)(C)CC)c1.Cl (stereo not shown) [YIAD001, 4-(3-(2,4-Di-tert-pentylphenoxy)-2-hydroxypropyl)morpholin-4-ium chloride] | reduced fibrils and increased monomers | 58.98 | did not induce significant shift | not affected | 44.59 | 38.68 | 26.08 | did not affect | 192.5 to 193.1 |  |
| CCC(C)(C)c1ccc(OCC(O)CN2CCCC2)c(C(C)(C)CC)c1.Cl (stereo not shown) [YIAD002, 1-(3-(2,4-Di-tert-pentylphenoxy)-2-hydroxypropyl)pyrrolidin-1-ium chloride] | reduced fibrils and increased monomers | 83.35 | did not induce significant shift | not affected | 51.97 | 57.47 | 32.11 | 35.29% | 179.8 to 180.7 | 32.76 |
